Results from the Kinase Knowledgebase extract (Sharma et al. 2016).
Values joined by “and” are separate entries in the source; they are usually repeats but may differ in a detail not shown here. Identical values can stand only once.

Molecular target: MAPK14 (UniProt Q16539)
Experiment: Inhibition of MAPK14 Kinase Activity

Sequence of MAPK14 (Q16539 whole entry, looked up): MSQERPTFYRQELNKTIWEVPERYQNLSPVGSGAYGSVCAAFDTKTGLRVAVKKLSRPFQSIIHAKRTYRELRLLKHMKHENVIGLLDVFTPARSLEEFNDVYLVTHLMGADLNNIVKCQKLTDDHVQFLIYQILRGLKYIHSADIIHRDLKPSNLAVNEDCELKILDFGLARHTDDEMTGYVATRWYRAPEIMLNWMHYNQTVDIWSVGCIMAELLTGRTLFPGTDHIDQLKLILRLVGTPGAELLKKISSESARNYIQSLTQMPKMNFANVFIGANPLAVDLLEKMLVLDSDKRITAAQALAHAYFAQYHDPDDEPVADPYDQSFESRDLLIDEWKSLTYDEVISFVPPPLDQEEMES

`Clc1ccccc1-c1nc(-c2ccccc2)[nH]c1-c1ccncc1` gave an IC50 of 151 nM.

Molecule `Fc1ccc(-c2nc[nH]c2-c2ccncc2)cc1` has an IC50 of 169 nM.

With `Oc1cccc(-c2nc(-c3ccccc3)[nH]c2-c2ccncc2)c1` the IC50 was 141 nM.

With `CC(C)c1nc(-c2ccccc2)[nH]c1-c1ccncc1` the IC50 was 2090 nM.

With `Fc1ccc(-c2nc(C3CCCCC3)[nH]c2-c2ccncc2)cc1` the IC50 was 70 nM.

For `C[C@@H](Nc1nccc(-c2[nH]c(C3CCNCC3)nc2-c2cccc(C(F)(F)F)c2)n1)c1ccccc1`, the IC50 was 0.9 nM.

Molecule `CNc1nccc(-c2[nH]c(-c3ccccc3)nc2-c2ccccc2)n1` has an IC50 of 120 nM.

In the case of `Nc1nccc(-c2[nH]c(C3CCNCC3)nc2-c2cccc(C(F)(F)F)c2)n1`, the IC50 is reported as 7 nM.

Molecule `c1ccc(-c2ccc(-c3nc(-c4ccccc4)[nH]c3-c3ccncc3)cc2)cc1` has an IC50 of 1000 nM.

In the case of `N#Cc1ccc(-c2nc(-c3ccccc3)[nH]c2-c2ccncc2)cc1`, the IC50 is reported as 977 nM.

`FC(F)(F)c1cccc(-c2nc(-c3ccccc3)[nH]c2-c2ccncc2)c1` showed an IC50 of 85 nM.

`FC(F)(F)c1ccc(-c2nc(-c3ccccc3)[nH]c2-c2ccncc2)cc1` gave an IC50 of 199 nM.

For `Clc1cc(Cl)cc(-c2nc(-c3ccccc3)[nH]c2-c2ccncc2)c1`, the IC50 was 138 nM.

`Clc1cccc(-c2nc(-c3ccccc3)[nH]c2-c2ccncc2)c1` gave an IC50 of 128 nM.

Molecule `COc1cccc(-c2nc(-c3ccccc3)[nH]c2-c2ccncc2)c1` has an IC50 of 549 nM.

With `C[C@H](Nc1nccc(-c2[nH]c(C3CCNCC3)nc2-c2cccc(C(F)(F)F)c2)n1)c1ccccc1` the IC50 was 0.7 nM and 0.1 nM.

`Clc1ccc(-c2nc(-c3ccccc3)[nH]c2-c2ccncc2)cc1` gave an IC50 of 47 nM.

`Fc1ccc(-c2nc(C3CCNCC3)[nH]c2-c2ccncc2)cc1` gave an IC50 of 8 nM.

`COc1ccc(CNc2nccc(-c3[nH]c(C4CCNCC4)nc3-c3cccc(C(F)(F)F)c3)n2)cc1` was tested, and the IC50 was 7 nM.

With `Clc1ccc(-c2nc(-c3ccccc3)[nH]c2-c2ccncc2)cc1Cl` the IC50 was 28 nM.

For `Fc1cccc(-c2nc(-c3ccccc3)[nH]c2-c2ccncc2)c1`, the IC50 was 489 nM.

Work on `Oc1ccc(-c2nc(-c3ccccc3)[nH]c2-c2ccncc2)cc1` yielded an IC50 of 1410 nM.

`Nc1nccc(-c2[nH]c(-c3ccccc3)nc2-c2ccccc2)n1` was tested, and the IC50 was 38 nM.

Molecule `COc1ccc(-c2nc(-c3ccccc3)[nH]c2-c2ccncc2)cc1` has an IC50 of 301 nM.

`COc1ccc(CNc2nccc(-c3[nH]c(-c4ccccc4)nc3-c3ccccc3)n2)cc1` showed an IC50 of 38 nM.

`c1ccc(-c2nc(-c3ccccc3)c(-c3ccncc3)[nH]2)cc1` showed an IC50 of 181 nM.

`c1ccc(-c2nc(-c3ccccc3)c(-c3ccncn3)[nH]2)cc1` gave an IC50 of 707 nM.
